Source: patent US9550782B2, “Compounds and methods for treating diabetes” (Medivation Technologies, Inc., priority 2011, dated 2017)
Where “and” joins values, the source holds several entries; their conditions need not be identical. Equal entries are not always repeated.

Legend:
[1] = target: T1, human recombinant adrenergic α2B receptor (Homo sapiens, UniProt P18089); assay: Radioligand binding, adrenergic α2B ([3H]Rauwolscine); details: for Percentage inhibition of ligand binding, Adrenergic α2B (0.03 μM): repeat datapoints each shown; for inhibition at 0.03 µM: read-out: Percentage inhibition of ligand binding, Adrenergic α2B (0.03 μM), compound at 0.03 μM, repeat datapoints each shown
T1 construct: expressed in transfected cells; host or cells: CHO-K1
T1 sequence (P18089 1-450): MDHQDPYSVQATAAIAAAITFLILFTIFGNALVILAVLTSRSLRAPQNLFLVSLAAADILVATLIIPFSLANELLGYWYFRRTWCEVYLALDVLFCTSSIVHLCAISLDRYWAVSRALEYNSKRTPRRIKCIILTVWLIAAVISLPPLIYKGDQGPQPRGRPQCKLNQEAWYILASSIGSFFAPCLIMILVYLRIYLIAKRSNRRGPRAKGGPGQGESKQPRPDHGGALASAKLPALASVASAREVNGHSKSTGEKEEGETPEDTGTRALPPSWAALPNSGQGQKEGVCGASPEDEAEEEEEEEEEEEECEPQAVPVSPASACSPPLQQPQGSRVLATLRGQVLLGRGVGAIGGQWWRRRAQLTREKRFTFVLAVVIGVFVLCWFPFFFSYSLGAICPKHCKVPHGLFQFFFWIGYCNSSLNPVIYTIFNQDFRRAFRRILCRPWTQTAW
Procedure: To evaluate in radioligand binding assays the activity of compounds of the invention, human recombinant adrenergic α2B receptor expressed in Chinese hamster ovary (CHO) K1 cells (Uhlen, S. et al, Eur. J. Pharmacol. 343(1):93, 1998) in a modified Tris-HCl buffer (50 mM Tris-HCl, pH 7.4, 12.5 mM MgCl2, 1 mM EDTA, 0.2% BSA) was used. Compounds of the invention were incubated with 2.5 nM [3H]Rauwolscine for 60 min at 25° C. Non-specific binding was estimated in the presence of 10 μM Prazosin. Receptor proteins were filtered and washed, the filters were then counted to determine [3H]Rauwolscine specifically bound. […] Compounds of the invention were tested in this biochemical assay and percent inhibition of specific binding was determined. Biochemical assay results are presented as the percent inhibition of specific binding in Table B1.

[2] = target: T2, human recombinant adrenergic α2A receptor (Homo sapiens, UniProt P08913); assay: Radioligand binding, adrenergic α2A ([3H]MK-912); details: for inhibition at 0.1 µM: read-out: Percentage inhibition of ligand binding, Adrenergic α2A (0.1 μM), compound at 0.1 μM
T2 construct: expressed in transfected cells; host or cells: insect Sf9 cells
T2 sequence (P08913 1-465): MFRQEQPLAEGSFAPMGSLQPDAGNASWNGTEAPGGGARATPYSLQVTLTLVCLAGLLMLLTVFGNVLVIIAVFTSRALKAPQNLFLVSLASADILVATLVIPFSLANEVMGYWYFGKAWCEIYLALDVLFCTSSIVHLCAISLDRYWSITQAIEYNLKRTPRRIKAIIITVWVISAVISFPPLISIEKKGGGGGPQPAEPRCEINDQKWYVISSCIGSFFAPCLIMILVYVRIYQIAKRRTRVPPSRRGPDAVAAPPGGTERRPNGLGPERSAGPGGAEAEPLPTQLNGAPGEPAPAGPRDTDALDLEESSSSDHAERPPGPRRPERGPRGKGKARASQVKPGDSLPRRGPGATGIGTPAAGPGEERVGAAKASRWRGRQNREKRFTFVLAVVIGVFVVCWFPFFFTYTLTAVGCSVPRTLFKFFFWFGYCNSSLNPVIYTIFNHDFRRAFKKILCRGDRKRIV
Procedure: To evaluate in radioligand binding assays the activity of compounds of the invention, human recombinant adrenergic α2A receptor expressed in insect Sf9 cells (Uhlen, S. et al, J. Pharmacol. Exp. Ther. 271:1558, 1994) in a modified Tris-HCl buffer (50 mM Tris-HCl, pH 7.4, 12.5 mM MgCl2, 2 mM EDTA) was used. Compounds of invention were incubated with 1 nM [^3H]MK-912 for 60 min at 25° C. MK912 is (2S-trans)-1,3,4,5′,6,6′,7,12b-octahydro-1′,3′-dimethyl-spiro[2H-benzofuro[2,3-a]quinolizine-2,4′(1′H)-pyrimidin]-2′(3′H)-one hydrochloride. Non-specific binding was estimated in the presence of 10 μM WB-4101 (2-(2,6-Dimethoxyphenoxyethyl)aminomethyl-1,4-benzodioxane hydrochloride). Receptor proteins were filtered and washed, the filters were then counted to determine [^3H]MK-912 specifically bound. […] Compounds of the invention were tested in this biochemical assay and percent inhibition of specific binding was determined. Biochemical assay results are presented as the percent inhibition of specific binding in Table B1.

[3] = target: T3, rat adrenergic α1B receptor (Rattus norvegicus, UniProt P15823); assay: Radioligand binding, adrenergic α1B ([3H]Prazosin); set-up: species or system Wistar Rat; details: for Percentage inhibition of ligand binding, Adrenergic α1B (0.1 μM): compound at 0.1 μM, repeat datapoints each shown
T3 construct: rat adrenergic α1B receptor obtained from Wistar Rat liver; from tissue; host or cells: Wistar rat liver
T3 sequence (P15823 1-515): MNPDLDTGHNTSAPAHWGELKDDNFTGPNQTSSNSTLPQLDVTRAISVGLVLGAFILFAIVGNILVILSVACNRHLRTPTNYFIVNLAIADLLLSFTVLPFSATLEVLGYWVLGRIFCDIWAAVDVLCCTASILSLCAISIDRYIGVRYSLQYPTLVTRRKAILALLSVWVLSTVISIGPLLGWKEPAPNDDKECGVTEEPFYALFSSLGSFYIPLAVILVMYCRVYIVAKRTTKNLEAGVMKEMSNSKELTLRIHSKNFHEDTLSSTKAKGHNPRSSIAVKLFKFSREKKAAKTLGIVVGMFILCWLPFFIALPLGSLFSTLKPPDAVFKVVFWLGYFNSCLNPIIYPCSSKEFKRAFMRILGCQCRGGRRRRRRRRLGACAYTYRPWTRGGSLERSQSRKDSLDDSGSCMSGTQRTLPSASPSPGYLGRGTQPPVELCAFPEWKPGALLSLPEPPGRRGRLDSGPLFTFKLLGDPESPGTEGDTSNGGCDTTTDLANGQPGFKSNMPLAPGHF
Procedure: To evaluate in radioligand binding assays the activity of compounds of the invention, rat adrenergic α1B receptor obtained from Wistar Rat liver (Garcia-S'ainz, J. et al, Biochem. Biophys. Res. Commun. 186:760, 1992; Michel, A. et al, Br. J. Pharmacol. 98:883, 1989) in a modified Tris-HCl buffer (50 mM Tris-HCl buffer, pH 7.4, 0.5 mM EDTA) was used. Compounds of the invention were incubated with 0.25 nM [^3H]Prazosin for 60 min at 25° C. Non-specific binding was estimated in the presence of 10 μM phentolamine. Receptor proteins were filtered and washed, the filters were then counted to determine [^3H]Prazosin specifically bound. […] Compounds of the invention were tested in this biochemical assay and percent inhibition of specific binding was determined. Biochemical assay results are presented as the percent inhibition of specific binding in Table B1.

[4] = [3H]MK-912, repeat datapoints each shown
[5] = 0.1 μM compound, [3H]MK-912, 0.1 µM
[6] = compound at 0.1 μM, [3H]MK-912, 0.1 µM

2-(4-fluoro-phenyl)-1-(9-methyl-1,2,3,4,5,10c-hexahydro-3a,6-diaza-cyclopenta[c]fluoren-6-yl)-propan-2-ol [II-121b]
Ki ([1]; CHO-K1, repeat assays each datapoint shown): 0.22 nM
Percentage inhibition of ligand binding, Adrenergic α2B (0.03 μM) ([1]; compound at 0.03 μM, 0.03 µM): 100% and 103%
Ki ([2]; [3H]MK-912, Sf9, repeat assays each datapoint shown): 9.18 nM
Percentage inhibition of ligand binding, Adrenergic α2A (0.03 μM) ([2]; compound at 0.03 μM, [3H]MK-912, repeat datapoints each shown): 54%
Percentage inhibition of ligand binding, Adrenergic α2A (0.1 μM) ([2]; compound at 0.1 μM, [3H]MK-912, repeat datapoints each shown, 0.1 µM): 80% and 85%

Cc1ccc2c(c1)c1c(n2CC(N=[N+]=[N-])c2ccncc2)CCN(C)C1 (racemic) [V-1a, 5-(2-azido-2-(pyridin-4-yl)ethyl)-2,3,4,5-tetrahydro-2,8-dimethyl-1H-pyrido[4,3-b]indole]
inhibition at 0.03 µM [1]: 88%
inhibition at 0.1 µM [2, 4]: 36%

Cc1ccc2c(c1)c1c(n2CC(OC(=O)C(N)C(C)C)c2ccncc2)CCN(C)C1 (single isomer, unassigned) [25a]
Percentage inhibition of ligand binding, Adrenergic α2B (0.03 μM) ([1]; compound at 0.03 μM, 0.03 µM): 54%
Percentage inhibition of ligand binding, Adrenergic α1B (0.1 μM) ([3]; 0.1 µM): 4%

Cc1ccc2c(c1)c1c(n2CC(OC(=O)C(N)C(C)C)c2ccncc2)CCN(C)C1 (single isomer, unassigned) [25b]
Percentage inhibition of ligand binding, Adrenergic α2B (0.03 μM) ([1]; compound at 0.03 μM, 0.03 µM): 75%
Percentage inhibition of ligand binding, Adrenergic α1B (0.1 μM) ([3]; 0.1 µM): 12%

Cc1ccc2c(c1)c1c(n2CC(OC(=O)C(C)(C)C)c2ccncc2)CCN(C)C1 (single isomer, unassigned) [130a]
Percentage inhibition of ligand binding, Adrenergic α2B ([1]; 0.03 μM compound, 0.03 µM): 100% and 104%
Percentage inhibition of ligand binding, Adrenergic α2B ([1]; 0.1 μM compound): 107%
Percentage inhibition of ligand binding, Adrenergic α1B ([3]; 0.03 μM compound, 0.03 µM): 32%
Percentage inhibition of ligand binding, Adrenergic α1B ([3]; 0.1 μM compound, 0.1 µM): 66% and 68%

Cc1cnc2c(c1)c1c(n2CC(O)c2ccc(F)cc2)CCN(C)C1 (single isomer, unassigned) [136b]
Percentage inhibition of ligand binding, Adrenergic α2B ([1]; 0.03 μM compound, 0.03 µM): 69%
Percentage inhibition of ligand binding, Adrenergic α2A [2, 5]: 21%

Cc1ccc(CCn2c3c(c4cc(Cl)cnc42)C2CCCN2CC3)cn1 (single isomer, unassigned) [137a]
Percentage inhibition of ligand binding, Adrenergic α2B ([1]; 0.03 μM compound, 0.03 µM): 104%
Percentage inhibition of ligand binding, Adrenergic α1B ([3]; 0.1 μM compound, 0.1 µM): 94%

Cc1cnc2c(c1)c1c(n2CC(C)(O)c2ccc(C)nc2)CCN2CCCC12 (single isomer, unassigned) [148d]
Percentage inhibition of ligand binding, Adrenergic α2B ([1]; 0.03 μM compound, 0.03 µM): 11%
Percentage inhibition of ligand binding, Adrenergic α2A [2, 5]: −11%

Cc1cnc2c(c1)c1c(n2CC(N)c2ccc(C#N)cc2)CCN(C)C1 (single isomer, unassigned) [159a]
Percentage inhibition of ligand binding, Adrenergic α2B ([1]; 0.03 μM compound, 0.03 µM): 37%
Percentage inhibition of ligand binding, Adrenergic α1B ([3]; 0.1 μM compound, 0.1 µM): −2%

C/C(=C\n1c2c(c3cc(C)ccc31)C1CCCCN1CC2)c1ccc(F)cc1 (single isomer, unassigned) [199a]
Percentage inhibition of ligand binding, Adrenergic α2B ([1]; 0.03 μM compound, 0.03 µM): 94%
Percentage inhibition of ligand binding, Adrenergic α2A [2, 5]: 96%

C/C(=C\n1c2c(c3cc(C)ccc31)C1CCCCN1CC2)c1ccc(F)cc1 (single isomer, unassigned) [199b]
Percentage inhibition of ligand binding, Adrenergic α2B ([1]; 0.03 μM compound, 0.03 µM): 27%
Percentage inhibition of ligand binding, Adrenergic α2A [2, 5]: 61%

Cc1ccc2c(c1)c1c(n2CC(N)c2ccncc2)CCN2CCCC12 (single isomer, unassigned) [II-4a, 2-(9-methyl-1,2,3,4,5,10c-hexahydro-3a,6-diaza-cyclopenta[c]fluoren-6-yl)-1-pyridin-4-yl-ethylamine]
Percentage inhibition of ligand binding, Adrenergic α2B ([1]; compound at 0.03 μM, 0.03 µM): 79%

Cc1ccc2c(c1)c1c(n2CC(N)c2ccncc2)CCN2CCCC12 (single isomer, unassigned) [II-4b, 2-(9-methyl-1,2,3,4,5,10c-hexahydro-3a,6-diaza-cyclopenta[c]fluoren-6-yl)-1-pyridin-4-yl-ethylamine]
Percentage inhibition of ligand binding, Adrenergic α2B ([1]; compound at 0.03 μM, 0.03 µM): 100%

OCCN1CCc2c(c3cc(Cl)ccc3n2CC(O)c2cccnc2)C1 (single isomer, unassigned) [II-94a]
Percentage inhibition of ligand binding, Adrenergic α2B ([1]; compound at 0.03 μM, 0.03 µM): 8%
Percentage inhibition of ligand binding, Adrenergic α2A [2, 6]: 0%

Cc1cnc2c(c1)c1c(n2CC(O)c2ccc(C)nc2)CCN(C)C1 (single isomer, unassigned) [II-100a]
Percentage inhibition of ligand binding, Adrenergic α2B ([1]; compound at 0.03 μM, 0.03 µM): 12%
Percentage inhibition of ligand binding, Adrenergic α2A [2, 6]: 7%

Cc1cnc2c(c1)c1c(n2CCc2ccc(C)nc2)CCN2CCCCC12 (single isomer, unassigned) [IV-8a]
Percentage inhibition of ligand binding, Adrenergic α2B (0.03 μM) ([1]; compound at 0.03 μM, 0.03 µM): 4%

Cc1ccc2c(c1)c1c(n2CC(O)c2ccc(C#N)cc2)CCN(C)C1 (stereo not drawn) [142a]
Percentage inhibition of ligand binding, Adrenergic α2B ([1]; 0.03 μM compound): 71%
Percentage inhibition of ligand binding, Adrenergic α1B ([3]; 0.1 μM compound): 68%

Cc1ccc2c(c1)c1c(n2CC(C)(O)c2ccc(C)nc2)CN(C)CC1 (stereo not drawn) [196b]
Percentage inhibition of ligand binding, Adrenergic α2B ([1]; 0.03 μM compound, 0.03 µM): −2%
Percentage inhibition of ligand binding, Adrenergic α1B ([3]; 0.1 μM compound, 0.1 µM): 37%

Cc1ccc2c(c1)c1c(n2C(C)C(O)c2ccncc2)CCN(C)C1 (stereo not drawn) [II-98b]
Percentage inhibition of ligand binding, Adrenergic α2B ([1]; compound at 0.03 μM): 5%

CN1CCc2c(c3cc(Cl)ccc3n2CC(O)c2ccncc2)C1 (stereo not drawn) [compound 4]
inhibition at 0.03 µM [1]: 106%

Cc1ccc2c(c1)c1c(n2CC(O)c2ccncc2)CN(C)CC1 (stereo not drawn) [compound 8]
inhibition at 0.03 µM [1]: 61%

Cc1ccc2c(c1)c1c(n2CC(O)c2ccncc2)C(C)N2CCC1C2 (stereo not drawn) [compound 38]
inhibition at 0.03 µM [1]: 56%
inhibition at 0.1 µM [2, 4]: -1%

CN1CCc2c(n(CC(O)c3ccncc3)c3ccc(Cl)cc23)C1 (stereo not drawn) [compound 41]
inhibition at 0.03 µM [1]: 45%
inhibition at 0.1 µM [2, 4]: 24%
